According to paper doi:10.1101/2023.07.11.548539v1, “A side-by-side comparison of peptide-delivered antisense antibiotics employing different nucleotide mimics” (bioRxiv, 2023):
Oligonucleotides are written 5' to 3', each unit as a sugar letter and its base; * is a phosphorothioate linkage, no mark a phosphodiester; rarer units and linkages stand in square brackets, end groups in braces. Plain capitals give the bases only. d = 2'-deoxy (DNA)

Experiments:
[1] = test system: acpP mRNA; assay: RNA-seq, target mRNA depletion; type: cell-based, Salmonella enterica serovar Typhimurium strain SL1344; set-up: key to acpP depletion (RNA-seq): -: Effect strength is represented by additional (+) signs.; Effect strength is represented by additional (+) signs.; ++: Effect strength is represented by additional (+) signs.; +++: Effect strength is represented by additional (+) signs; details: for acpP depletion (RNA-seq): summary grade, ASO conjugated to the carrier peptide; for acpP mRNA depletion (in words): 5 µM KFF-ASO conjugate, 15 min, ~10^6 cfu/ml
Protocol: RNA isolation was performed using previously published protocols ([30],[31]). Bacterial overnight cultures were diluted 1:100 in fresh MHB and grown to OD600 0.5. The cultures were diluted to approximately 10^6 cfu/ml in non-cation-adjusted MHB. Afterwards, an aliquot of the bacterial solution was transferred into 5 ml low-binding tubes (LABsolute) containing the ASOs solution (adjusted such that the final concentration was 5 μM for all tested compounds). As a negative control, cells were treated with the respective volume of sterile nuclease-free water, which was used as solvent for the ASOs. After incubating the samples for 15 min at 37 °C, RNAprotect Bacteria (Qiagen) was added according to the manufacturer’s instructions. Following a 10-min incubation, cells were pelleted at 4 °C and 21,100 × g for 20 min. The supernatant was discarded and pellets were either directly used or stored at –20°C (<1 day) for subsequent bacterial RNA isolation.
Total RNA was purified from bacterial pellets using the miRNeasy Mini kit (Qiagen) according to protocol #3 described in ([30]). Briefly, cells were resuspended in 0.5 mg/ml lysozyme (Roth) in TE buffer (pH 8.0) and incubated for 5 min. Afterwards, RLT buffer supplemented with β-mercaptoethanol, and ethanol were added according to the manufacturer’s instructions. After sample loading, column wash-steps were performed according to the manual. RNA concentration was measured with a NanoDrop spectrophotometer.
For transcriptomic analyses, RNA samples were processed and subjected to RNA-seq at Core Unit SysMed (University of Würzburg, Germany). Sequencing was run using a previously published protocol ([31]). Briefly, RNA quality was checked using a 2100 Bioanalyzer with the RNA 6000 Pico/ Nano kit (Agilent Technologies). RNA samples were DNase-treated using DNAse I kit (Thermo Fisher), followed by ribosomal RNA depletion using Lexogen’s RiboCop META rRNA Depletion Kit protocol according to manufacturer’s recommendation. Subsequently, cDNA libraries suitable for sequencing were prepared using CORALL Total RNA-Seq Library Prep protocol (Lexogen) according to manufacturer’s recommendation with 14–25 PCR cycles. Library quality was checked using a 2100 Bioanalyzer with the DNA High Sensitivity kit (Agilent Technologies). Sequencing of pooled libraries, spiked with 5% PhiX control library, was performed at 10 million reads/sample in single-end mode with 75 nt read length on the NextSeq 500 platform (Illumina) using High output sequencing kits. Demultiplexed FASTQ files were generated with bcl2fastq2 v2.20.0.422 (Illumina).
RNA-seq data analysis was performed similarly to our previous analysis of PNA activity in S. enterica ([30]). Briefly, adapters and low-quality bases (Phred quality score <10) of raw reads were trimmed using BBduk. Then the RNA-seq reads were mapped to the S. enterica serovar Typhimurium reference genome and the three plasmids pSLT SL1344, pCol1B9 SL1344, and pRSF1010 SL1344 ([37]) using BBMap (v38.18) and genomic features were assigned using the featureCounts command of the Subread (2.0.1) package ([38]). For the coverage plots in Figure 8, the bamCoverage (v3.3.2) method of the deepTools platform was applied ([39]).
Downstream RNA-seq analysis was performed using packages from the R/Bioconductor project. Raw read counts of all conditions were imported into edgeR (v3.34.1) ([40]) and analysed for differential expression. To filter low-count reads, features with less than 1.38 counts per million (CPM) in at least 5 libraries were ignored for further analysis. The cutoff of 1.38 CPM was set to 10/L, with L being the minimum library size across all samples in millions, as described in ([41]). Libraries were normalized using edgeR’s trimmed mean of M values (TMM) normalization ([40]). The glmFit function was applied to estimate quasi-likelihood dispersions and contrasts for differential expression analysis were tested using the glmQLTest function. […]

[2] = test system: Cy5 5'-labelled RNA, nucleotides -20 to +20 of acpP (target mRNA); assay: Microscale thermophoresis (MST) binding affinity; set-up: species or system Salmonella enterica; key to Binding affinity (in vitro): -: Effect strength is represented by additional (+) signs.; Effect strength is represented by additional (+) signs.; ++: Effect strength is represented by additional (+) signs.; +++: Effect strength is represented by additional (+) signs; details: unconjugated ASO; for Binding affinity (in vitro): summary grade
Protocol: For each binding experiment, Cy5 5’-labelled RNA (as described above) was diluted to 10 nM in Buffer A (50 mM Tris-HCl pH 7.6, 250 mM KCl, 5 mM MgCl2, 1 mM DTT, 5% glycerol supplemented with 0.05% Tween 20). A series of 16 tubes with different ASO dilutions (500 nM to 0.015 nM) were prepared in Buffer A. For measurements, each ASO dilution was mixed with one volume of labeled RNA, which led to a final concentration of 5.0 nM labeled RNA and 250 nM to 0.007 nM of ASOs. The reaction was mixed by pipetting and incubated for 30 min at RT in the dark. Capillary forces were used to load the samples into Monolith NT.115 Premium Capillaries; measurements were performed using a Monolith Pico instrument (NanoTemper Technologies Gmbh, Munich, Germany) at an ambient temperature of 25 °C. Instrument parameters were adjusted to 5% LED power, medium MST power, and MST on-time of 2.5 s. An initial fluorescence scan was performed across the capillaries to determine sample quality, which was followed by 16 thermophoresis measurements. […] Data of two independent measurements were analyzed for the ΔFnorm value determined by the MO Affinity Analysis software (NanoTemper Technologies Gmbh, Munich, Germany). The fitting for EC50 values was done using the Hill equation within the MO Affinity Analysis software. Data are presented as the mean EC50 values of two independent experiments.

DNA-PTO: 10mer phosphorothioate-modified DNA antisense oligomer, sequence CTCATACTCT, targeting acpP (antisense dC*dT*dC*dA*dT*dA*dC*dT*dC*dT)
acpP depletion (RNA-seq) [1]: -
Binding affinity (in vitro) [2]: -
Binding affinity (EC50, nM) ([2]; MST, 5.0 nM labelled RNA, ASO 250 nM to 0.007 nM, 30 min RT, 25 °C, Hill fit, mean ± SD of two independent experiments): Could not be determined

LNA: 10mer 2'-4'-locked RNA antisense oligomer, sequence CTCATACTCT, targeting acpP (all LNA, backbone and methylation of C not given here)
acpP mRNA depletion (in words) [1]: slight effect
acpP depletion (RNA-seq) [1]: -
Binding affinity (in vitro) [2]: +++

PMO: 10mer phosphorodiamidate morpholino antisense oligomer, sequence CTCATACTCT, targeting acpP (all phosphorodiamidate morpholino (PMO))
Binding affinity (in vitro) [2]: ++

PNA: 10mer peptide nucleic acid antisense oligomer, sequence CTCATACTCT, targeting acpP (all peptide nucleic acid (PNA))
acpP mRNA depletion (in words) [1]: reduced the levels of acpP mRNA
Binding affinity (in vitro) [2]: +++

RNA-F: 10mer 2'-fluorinated RNA antisense oligomer, sequence CTCATACTCT, targeting acpP (all 2'-fluoro, backbone and T or U not given here)
acpP depletion (RNA-seq) [1]: -
Binding affinity (in vitro) [2]: +

RNA-MOE: 10mer 2'-methoxyethylated RNA antisense oligomer, sequence CTCATACTCT, targeting acpP (all 2'-MOE, backbone and methylation of C not given here)
acpP depletion (RNA-seq) [1]: -
Binding affinity (in vitro) [2]: +++

RNA-OMe: 10mer 2'-methylated RNA antisense oligomer, sequence CTCATACTCT, targeting acpP (all 2'-O-methyl, backbone and T or U not given here)
acpP depletion (RNA-seq) [1]: -
Binding affinity (in vitro) [2]: ++
